The text below walks through data of ChEMBL document CHEMBL3046064, “Expression of OPN in rat kidney with different doses of vitamin K3 injection” (2007).

Molecules are shown by their SMILES.

Assay [1] deals with Rattus norvegicus. In words: Downregulation of OPN expression in 1% ethylene glycol-treated Rattus norvegicus Sprague-Dawley (rat) kidney at 0.8 mg/day, po after 14 days by ELISA (reference value: 75 +/- 13.5 %). Type of assay: functional.
The subject of assay [2] is Rattus norvegicus. In words: Downregulation of OPN expression in 1% ethylene glycol-treated Rattus norvegicus Sprague-Dawley (rat) kidney at 2 mg/day, po after 14 days by ELISA (reference value: 75 +/- 13.5 %). Type of assay: functional. For orientation: ELISA stands for enzyme-linked immunosorbent assay.
For assay [3], the system named is Rattus norvegicus. In words: Downregulation of OPN expression in 1% ethylene glycol-treated Rattus norvegicus Sprague-Dawley (rat) kidney at 3 mg/day, po after 14 days by ELISA (reference value: 75 +/- 13.5 %). Type of assay: functional.
Assay [4] relates to Rattus norvegicus. In words: Downregulation of OPN expression in 1% ethylene glycol-treated Rattus norvegicus Sprague-Dawley (rat) kidney at 4 mg/day, po after 14 days by ELISA (reference value: 75 +/- 13.5 %). It is filed as functional.
Assay [5] is filed under the species Rattus norvegicus. The assay can be described thus: Renoprotective activity in Rattus norvegicus Sprague-Dawley (rat) kidney assessed as decrease in oxalate excretion in urine at 4 mg/day after 14 days in presence of water (reference value: 1.11 +/- 0.06 uM). It is filed as functional.
The species named for assay [6] is Rattus norvegicus. In words: Renoprotective activity in 1% ethylene glycol-treated Rattus norvegicus Sprague-Dawley (rat) kidney assessed as decrease in oxalate excretion in urine at 0.4 mg/day after 14 days (reference value: 4.07 +/- 0.05 uM). It is filed as functional.
The species named for assay [7] is Rattus norvegicus. In words: Renoprotective activity in 1% ethylene glycol-treated Rattus norvegicus Sprague-Dawley (rat) kidney assessed as decrease in oxalate excretion in urine at 0.8 mg/day after 14 days (reference value: 4.07 +/- 0.05 uM). Type of assay: functional.
The species named for assay [8] is Rattus norvegicus. In words: Renoprotective activity in 1% ethylene glycol-treated Rattus norvegicus Sprague-Dawley (rat) kidney assessed as decrease in oxalate excretion in urine at 2 mg/day after 14 days (reference value: 4.07 +/- 0.05 uM). Type of assay: functional.
The species entered for assay [9] is Rattus norvegicus. The assay can be described thus: Renoprotective activity in 1% ethylene glycol-treated Rattus norvegicus Sprague-Dawley (rat) kidney assessed as decrease in oxalate excretion in urine at 3 mg/day after 14 days (reference value: 4.07 +/- 0.05 uM). It is filed as functional.
Assay [10] is filed under the species Rattus norvegicus. The assay can be described thus: Renoprotective activity in 1% ethylene glycol-treated Rattus norvegicus Sprague-Dawley (rat) kidney assessed as decrease in oxalate excretion in urine at 4 mg/day after 14 days (reference value: 4.07 +/- 0.05 uM). Type of assay: functional.
In assay [11] the test system is Rattus norvegicus. In words: Downregulation of OPN expression in 1% ethylene glycol-treated po dosed Rattus norvegicus Sprague-Dawley (rat) kidney at 0.4 mg/day, po after 14 days by ELISA. It is filed as functional, organism-based.
For assay [12], the system named is Rattus norvegicus. The assay can be described thus: Downregulation of OPN expression in Rattus norvegicus Sprague-Dawley (rat) kidney at 0.4 mg/day, po after 14 days by ELISA in presence of water (reference value: 10 +/- 3 %). Type of assay: functional.
Assay [13] has as its system Rattus norvegicus. In words: Downregulation of OPN expression in 1% ethylene glycol-treated Rattus norvegicus Sprague-Dawley (rat) kidney at 0.4 mg/day, po after 14 days by ELISA (reference value: 75 +/- 13.5 %). It is filed as functional.

Regarding `CC1=CC(=O)c2ccccc2C1=O` [MENADIONE], the Activity in the assay with Rattus norvegicus [1] was determined as 55%; in the assay on Rattus norvegicus [2], 35%; in the assay on Rattus norvegicus [3], 30%; in the assay on Rattus norvegicus [4] it was 20%; in the assay filed under Rattus norvegicus [5], 1.02 µM; in the assay listed under Rattus norvegicus [6] it was 3.44 µM. Also, the Activity in the assay filed under Rattus norvegicus [7] was 3.04 µM; in the assay listed under Rattus norvegicus [8], 2.55 µM; in the assay filed under Rattus norvegicus [9] it was 2.01 µM; in the assay filed under Rattus norvegicus [10], 1.49 µM; with Rattus norvegicus [11], “Dose-dependent effect”; in the assay with Rattus norvegicus [12], 11%. Moreover, the Activity in the assay with Rattus norvegicus [13] is given as 70%.
